Literature values in patent US8865899B2 (AstraZeneca AB, priority 2006, dated 2014).

Legend:
tumour models = conditions: once-daily oral administration; Wedge et al, Proc. Am. Assoc. Canc. Res. 2001; 42: abstract 3126
VEGF RTK = conditions: statement in words, background

In the case of `COc1cc2c(Nc3ccc(Br)cc3F)ncnc2cc1OCC1CCN(C)CC1` [ZD6474, 4-(4-bromo-2-fluoroanilino)-6-methoxy-7-(1-methylpiperidin-4-ylmethoxy)quinazoline], the anti-tumour activity (tumour models) is given as “broad-spectrum anti-tumour activity” and the “inhibition of VEGF RTK” value (VEGF RTK) is given as “potent inhibitor”.
